From patent publication US20260022142A1, “MACROCYCLIC IMMUNOMODULATORS” (Bristol-Myers Squibb Company, priority 2022, published 2026)
Numbered stars: 1 amine (or outer) side, 2 acyl side, 3 side chain; on linkers, the order of the positions; unused ones are H or OH. Bridge positions count the residues as written; N and C are the ends. Square brackets hold non-standard residues; d marks the D form. Peptide text beside a SMILES is read from it. * marks the point of attachment. ξ: configuration not given here. Bip = N[C@@H](Cc1ccc(-c2ccccc2)cc1)C(=O)O; Phe(3-Me) = Cc1cccc(C[C@H](N)C(=O)O)c1; γGlu = O=C(O)[C@H](CCC(=O)[*:2])N[*:1]; Cha = N[C@@H](CC1CCCCC1)C(=O)O; Thr(3ξ) = CC(O)[C@H](N)C(=O)O; Carboxymethyl = O=C(O)C*; Orn = NCCC[C@H](N)C(=O)O; Aun = NCCCCCCCCCCC(=O)O; Dab = NCC[C@H](N)C(=O)O; Dap = NC[C@H](N)C(=O)O; AEEA = NCCOCCOCC(=O)O

Molecular target: T1, PD-1/PD-L1 interaction (PE-labeled human PD-L1-Ig binding to Jurkat cell line over-expressing human PD-1) (Homo sapiens, UniProt Q15116)
T1 construct: expressed in transfected cells; host or cells: Jurkat
T1 sequence (Q15116 25-288): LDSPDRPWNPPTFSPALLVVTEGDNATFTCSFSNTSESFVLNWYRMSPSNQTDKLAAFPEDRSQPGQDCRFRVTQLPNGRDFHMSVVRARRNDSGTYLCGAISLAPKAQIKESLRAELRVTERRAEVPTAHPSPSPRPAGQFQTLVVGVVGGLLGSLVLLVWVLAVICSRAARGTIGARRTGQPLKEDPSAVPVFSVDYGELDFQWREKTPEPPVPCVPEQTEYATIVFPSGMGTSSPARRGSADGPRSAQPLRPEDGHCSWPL
Assay: Jurkat-PD-1 Cell Binding High-Content Screening Assay (CBA)
Type: cell-based
Conditions: Jurkat cell line over-expressing human PD-1; PE-labeled PD-L1-Ig 20 nM final; read-out: Jurkat hPD1-PDL1 IC50
Outline: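 Jurkat-hPD-1 cells, DMEM/10% FCS; cpd 2 h 37° C; PE-PD-L1-Ig 20 nM final, 1 h; 4% PFA fix + Hoechst 33342, 3× dPBS wash; high-content imaging read-out.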

Compound `Cc1cccc(C[C@@H]2NC(=O)[C@H](CC(=O)O)NC(=O)[C@H](Cc3ccc(OCC(=O)O)cc3)NC(=O)[C@H](CCN)NC(=O)CSC[C@@H](C(=O)N[C@@H](CCN)C(=O)NCCCCCCCCCCC(=O)O)NC(=O)[C@H](CO)NC(=O)[C@H](C(C)O)NC(=O)[C@H](CC3CCCCC3)NC(=O)[C@H](Cc3cnc[nH]3)NC(=O)[C@@H](CC(C)C)NC(=O)[C@H](CCCN)NC(=O)[C@H](Cc3ccc(OCC(=O)O)cc3)NC(=O)[C@H](Cc3ccc(-c4ccccc4)cc3)NC(=O)[C@H](Cc3ccc(OCC(=O)O)cc3)NC2=O)c1` (stereo partly drawn) [Compound 3672] ({CH2CO}-[Dab]Y(Carboxymethyl)D[Phe(3-Me)]Y(Carboxymethyl)[Bip]Y(Carboxymethyl)[Orn][dL]H[Cha][Thr(3ξ)]SC[Dab][Aun]-OH; thioether N-14) has an IC50 of 0.0207 µM.

With `CC(C)C[C@H]1NC(=O)[C@H](CCCN)NC(=O)[C@H](C(C)C)NC(=O)[C@H](Cc2ccc(-c3ccccc3)cc2)NC(=O)[C@H](C(C)C)NC(=O)[C@H](Cc2c[nH]c3ccccc23)NC(=O)[C@H](CC(=O)O)NC(=O)[C@H](Cc2ccc(OCC(=O)O)cc2)NC(=O)[C@H](C(C)O)NC(=O)CSC[C@@H](C(=O)N[C@@H](CCN)C(=O)NCCCCCCCCCCC(=O)O)NC(=O)[C@H](CCCCN)NC(=O)[C@H](C(C)O)NC(=O)[C@H](CC2CCCCC2)NC(=O)[C@H](CCN)NC1=O` (stereo partly drawn) [Compound 3673] ({CH2CO}-[Thr(3ξ)]Y(Carboxymethyl)DWV[Bip]V[Orn][dL][Dab][Cha][Thr(3ξ)]KC[Dab][Aun]-OH; thioether N-14) the IC50 was 0.0292 µM.

With `CC(C)C[C@H]1NC(=O)[C@H](CCCN)NC(=O)[C@H](C(C)C)NC(=O)[C@H](Cc2ccc(-c3ccccc3)cc2)NC(=O)[C@H](C(C)C)NC(=O)[C@H](Cc2c[nH]c3ccccc23)NC(=O)[C@H](CC(=O)O)NC(=O)[C@H](Cc2ccc(OCC(=O)O)cc2)NC(=O)[C@H](C(C)O)NC(=O)CSC[C@@H](C(=O)N[C@@H](CCN)C(=O)NCCCCCCCCCCC(=O)O)NC(=O)[C@H](CCN)NC(=O)[C@H](C(C)O)NC(=O)[C@H](CC2CCCCC2)NC(=O)[C@H](CCN)NC1=O` (stereo partly drawn) [Compound 3674] ({CH2CO}-[Thr(3ξ)]Y(Carboxymethyl)DWV[Bip]V[Orn][dL][Dab][Cha][Thr(3ξ)][Dab]C[Dab][Aun]-OH; thioether N-14) the IC50 was 0.0134 µM.

With `CC(C)C[C@H]1NC(=O)[C@H](CCCN)NC(=O)[C@H](C(C)C)NC(=O)[C@H](Cc2ccc(-c3ccccc3)cc2)NC(=O)[C@H](C(C)C)NC(=O)[C@H](Cc2c[nH]c3ccccc23)NC(=O)[C@H](CC(=O)O)NC(=O)[C@H](Cc2ccc(OCC(=O)O)cc2)NC(=O)[C@H](C(C)O)NC(=O)CSC[C@@H](C(=O)N[C@@H](CCN)C(=O)NCCCCCCCCCCC(=O)O)NC(=O)[C@H](CCCN)NC(=O)[C@H](C(C)O)NC(=O)[C@H](CC2CCCCC2)NC(=O)[C@H](CCN)NC1=O` (stereo partly drawn) [Compound 3675] ({CH2CO}-[Thr(3ξ)]Y(Carboxymethyl)DWV[Bip]V[Orn][dL][Dab][Cha][Thr(3ξ)][Orn]C[Dab][Aun]-OH; thioether N-14) the IC50 was 0.0193 µM.

`CC(C)C[C@H]1NC(=O)[C@H](CCCN)NC(=O)[C@H](C(C)C)NC(=O)[C@H](Cc2ccc(-c3ccccc3)cc2)NC(=O)[C@H](C(C)C)NC(=O)[C@H](Cc2c[nH]c3ccccc23)NC(=O)[C@H](CC(=O)O)NC(=O)[C@H](Cc2ccc(OCC(=O)O)cc2)NC(=O)[C@H](CN)NC(=O)CSC[C@@H](C(=O)N[C@@H](CCN)C(=O)NCCCCCCCCCCC(=O)O)NC(=O)[C@H](CCN)NC(=O)[C@H](C(C)O)NC(=O)[C@H](CC2CCCCC2)NC(=O)[C@H](CCN)NC1=O` (stereo partly drawn) [Compound 3676] ({CH2CO}-[Dap]Y(Carboxymethyl)DWV[Bip]V[Orn][dL][Dab][Cha][Thr(3ξ)][Dab]C[Dab][Aun]-OH; thioether N-14) showed an IC50 of 0.0092 µM.

`CC(C)C[C@H]1NC(=O)[C@H](CCCN)NC(=O)[C@H](C(C)C)NC(=O)[C@H](Cc2ccc(-c3ccccc3)cc2)NC(=O)[C@H](C(C)C)NC(=O)[C@H](Cc2c[nH]c3ccccc23)NC(=O)[C@H](CC(=O)O)NC(=O)[C@H](Cc2ccc(OCC(=O)O)cc2)NC(=O)[C@H](CN)NC(=O)CSC[C@@H](C(=O)N[C@@H](CCN)C(=O)NCCCCCCCCCCC(=O)O)NC(=O)[C@H](CCCN)NC(=O)[C@H](C(C)O)NC(=O)[C@H](CC2CCCCC2)NC(=O)[C@H](CCN)NC1=O` (stereo partly drawn) [Compound 3677] ({CH2CO}-[Dap]Y(Carboxymethyl)DWV[Bip]V[Orn][dL][Dab][Cha][Thr(3ξ)][Orn]C[Dab][Aun]-OH; thioether N-14) was tested, and the IC50 was 0.0113 µM.

For `CC(C)C[C@H]1NC(=O)[C@H](CCCN)NC(=O)[C@H](C(C)C)NC(=O)[C@H](Cc2ccc(-c3ccccc3)cc2)NC(=O)[C@H](C(C)C)NC(=O)[C@H](Cc2c[nH]c3ccccc23)NC(=O)[C@H](CC(=O)O)NC(=O)[C@H](Cc2ccc(OCC(=O)O)cc2)NC(=O)[C@H](C(C)O)NC(=O)CSC[C@@H](C(=O)N[C@@H](CCN)C(=O)NCCOCCOCC(=O)N[C@@H](CCC(=O)NCCCCCCCCCCC(=O)O)C(=O)O)NC(=O)[C@H](CCN)NC(=O)[C@H](C(C)O)NC(=O)[C@H](CC2CCCCC2)NC(=O)[C@H](CCN)NC1=O` (stereo partly drawn) [Compound 3678] ({CH2CO}-[Thr(3ξ)]Y(Carboxymethyl)DWV[Bip]V[Orn][dL][Dab][Cha][Thr(3ξ)][Dab]C[Dab][AEEA][γGlu][Aun]-OH; thioether N-14), the IC50 was 0.0092 µM.

`CC(C)C[C@H]1NC(=O)[C@H](CCCN)NC(=O)[C@H](C(C)C)NC(=O)[C@H](Cc2ccc(-c3ccccc3)cc2)NC(=O)[C@H](C(C)C)NC(=O)[C@H](Cc2c[nH]c3ccccc23)NC(=O)[C@H](CC(=O)O)NC(=O)[C@H](Cc2ccc(OCC(=O)O)cc2)NC(=O)[C@H](CN)NC(=O)CSC[C@@H](C(=O)N[C@@H](CCN)C(=O)NCCOCCOCC(=O)N[C@@H](CCC(=O)NCCCCCCCCCCC(=O)O)C(=O)O)NC(=O)[C@H](CCN)NC(=O)[C@H](C(C)O)NC(=O)[C@H](CC2CCCCC2)NC(=O)[C@H](CCN)NC1=O` (stereo partly drawn) [Compound 3679] ({CH2CO}-[Dap]Y(Carboxymethyl)DWV[Bip]V[Orn][dL][Dab][Cha][Thr(3ξ)][Dab]C[Dab][AEEA][γGlu][Aun]-OH; thioether N-14) showed an IC50 of 0.0096 µM.

Compound `CC(C)C[C@H]1NC(=O)[C@H](CCCN)NC(=O)[C@H](C(C)C)NC(=O)[C@H](Cc2ccc(-c3ccccc3)cc2)NC(=O)[C@H](C(C)C)NC(=O)[C@H](Cc2c[nH]c3ccccc23)NC(=O)[C@H](CC(=O)O)NC(=O)[C@H](Cc2ccc(OCC(=O)O)cc2)NC(=O)[C@H](CN)NC(=O)CSC[C@@H](C(=O)N[C@@H](CCN)C(=O)NCCOCCOCC(=O)N[C@@H](CCC(=O)NCCCCCCCCCCC(=O)O)C(=O)O)NC(=O)[C@H](CCCN)NC(=O)[C@H](C(C)O)NC(=O)[C@H](CC2CCCCC2)NC(=O)[C@H](CCN)NC1=O` (stereo partly drawn) [Compound 3680] ({CH2CO}-[Dap]Y(Carboxymethyl)DWV[Bip]V[Orn][dL][Dab][Cha][Thr(3ξ)][Orn]C[Dab][AEEA][γGlu][Aun]-OH; thioether N-14) has an IC50 of 0.0158 µM.

For `CC(C)C[C@@H]1NC(=O)[C@H](Cc2c[nH]c3ccccc23)NC(=O)[C@H](CC(=O)O)NC(=O)[C@H](Cc2ccc(OCC(=O)O)cc2)NC(=O)[C@H](CN)NC(=O)CSC[C@@H](C(=O)N[C@@H](CCN)C(=O)NCCCCCCCCCCC(=O)O)NC(=O)[C@H](CCN)NC(=O)[C@H](C(C)O)NC(=O)[C@H](CC2CCCCC2)NC(=O)[C@H](CCN)NC(=O)[C@@H](CC(C)C)NC(=O)[C@H](CCCN)NC(=O)[C@H](Cc2ccc(O)cc2)NC(=O)[C@H](Cc2ccc(-c3ccccc3)cc2)NC1=O` (stereo partly drawn) [Compound 3681] ({CH2CO}-[Dap]Y(Carboxymethyl)DWL[Bip]Y[Orn][dL][Dab][Cha][Thr(3ξ)][Dab]C[Dab][Aun]-OH; thioether N-14), the IC50 was 0.0717 µM.

`CC(C)C[C@@H]1NC(=O)[C@H](Cc2c[nH]c3ccccc23)NC(=O)[C@H](CC(=O)O)NC(=O)[C@H](Cc2ccc(OCC(=O)O)cc2)NC(=O)[C@H](CN)NC(=O)CSC[C@@H](C(=O)N[C@@H](CCN)C(=O)NCCCCCCCCCCC(=O)O)NC(=O)[C@H](CCCN)NC(=O)[C@H](C(C)O)NC(=O)[C@H](CC2CCCCC2)NC(=O)[C@H](CCN)NC(=O)[C@@H](CC(C)C)NC(=O)[C@H](CCCN)NC(=O)[C@H](Cc2ccc(O)cc2)NC(=O)[C@H](Cc2ccc(-c3ccccc3)cc2)NC1=O` (stereo partly drawn) [Compound 3682] ({CH2CO}-[Dap]Y(Carboxymethyl)DWL[Bip]Y[Orn][dL][Dab][Cha][Thr(3ξ)][Orn]C[Dab][Aun]-OH; thioether N-14) was tested, and the IC50 was 0.0514 µM.

For `CC(C)C[C@@H]1NC(=O)[C@H](Cc2c[nH]c3ccccc23)NC(=O)[C@H](CC(=O)O)NC(=O)[C@H](Cc2ccc(OCC(=O)O)cc2)NC(=O)[C@H](C(C)O)NC(=O)CSC[C@@H](C(=O)N[C@@H](CCN)C(=O)NCCCCCCCCCCC(=O)O)NC(=O)[C@H](CCN)NC(=O)[C@H](C(C)O)NC(=O)[C@H](CC2CCCCC2)NC(=O)[C@H](CCN)NC(=O)[C@@H](CC(C)C)NC(=O)[C@H](CCCN)NC(=O)[C@H](Cc2ccc(O)cc2)NC(=O)[C@H](Cc2ccc(-c3ccccc3)cc2)NC1=O` (stereo partly drawn) [Compound 3683] ({CH2CO}-[Thr(3ξ)]Y(Carboxymethyl)DWL[Bip]Y[Orn][dL][Dab][Cha][Thr(3ξ)][Dab]C[Dab][Aun]-OH; thioether N-14), the IC50 was 0.118 µM.

Work on `CC(C)C[C@@H]1NC(=O)[C@H](Cc2c[nH]c3ccccc23)NC(=O)[C@H](CC(=O)O)NC(=O)[C@H](Cc2ccc(OCC(=O)O)cc2)NC(=O)[C@H](C(C)O)NC(=O)CSC[C@@H](C(=O)N[C@@H](CCN)C(=O)NCCCCCCCCCCC(=O)O)NC(=O)[C@H](CCCN)NC(=O)[C@H](C(C)O)NC(=O)[C@H](CC2CCCCC2)NC(=O)[C@H](CCN)NC(=O)[C@@H](CC(C)C)NC(=O)[C@H](CCCN)NC(=O)[C@H](Cc2ccc(O)cc2)NC(=O)[C@H](Cc2ccc(-c3ccccc3)cc2)NC1=O` (stereo partly drawn) [Compound 3684] ({CH2CO}-[Thr(3ξ)]Y(Carboxymethyl)DWL[Bip]Y[Orn][dL][Dab][Cha][Thr(3ξ)][Orn]C[Dab][Aun]-OH; thioether N-14) yielded an IC50 of 0.0771 µM.
